Measured values from US6737383B1, “Herbicidal oxadiazolidines” (priority 1999, dated 2004).

Key:
bedstraw = test: Test B pre/postemergence bedstraw; assay type: in vivo, Galium aparine
In short: (§1)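 Test chemicals in a non-phytotoxic solvent mixture with surfactant were sprayed preemergence onto planted seeds and postemergence onto plants 2 to 18 cm tall (1- to 4-leaf stage). After twelve to sixteen days in a greenhouse, injury was visually rated against untreated controls from 0 (no effect) to 10 (complete control).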

blackgrass = test: Test B pre/postemergence blackgrass; assay type: in vivo, Alopecurus myosuroides
In short: as §1

surinam grass = test: Test B pre/postemergence surinam grass; assay type: in vivo, Brachiaria decumbens
In short: as §1

cocklebur = test: Test B pre/postemergence cocklebur; assay type: in vivo, Xanthium strumarium
In short: as §1

corn = test: Test B pre/postemergence corn; assay type: in vivo, Zea mays
In short: as §1

crabgrass = test: Test B pre/postemergence crabgrass; assay type: in vivo, Digitaria sanguinalis
In short: as §1

giant foxtail = test: Test B pre/postemergence giant foxtail; assay type: in vivo, Setaria faberii
In short: as §1

morningglory = test: Test B pre/postemergence morningglory; assay type: in vivo, Ipomoea hederacea
In short: as §1

pigweed = test: Test B pre/postemergence pigweed; assay type: in vivo, Amaranthus retroflexus; conditions: for Plant response rating, Redroot pigweed: Postemergence; for Plant response rating, Redroot pigweed / Redroot pigweed plant response rating: scale of 0 to 10 where 0 is no effect and 10 is complete control
In short: as §1

rape = test: Test B pre/postemergence rape; assay type: in vivo, Brassica napus
In short: as §1

soybean = test: Test B pre/postemergence soybean; assay type: in vivo, Glycine max; conditions: for Plant response rating, Soybean: Postemergence
In short: as §1

sugar beet = test: Test B pre/postemergence sugar beet; assay type: in vivo, Beta vulgaris; conditions: for Plant response rating, Sugarbeets: Postemergence
In short: as §1

velvetleaf = test: Test B pre/postemergence velvetleaf; assay type: in vivo, Abutilon theophrasti; conditions: for Plant response rating, Velvetleaf: Postemergence
In short: as §1

wheat = test: Test B pre/postemergence wheat; assay type: in vivo, Triticum aestivum; conditions: for Plant response rating, Wheat: Postemergence
In short: as §1

wild oat = test: Test B pre/postemergence wild oat; assay type: in vivo, Avena fatua; conditions: for Plant response rating, Wild oats: Postemergence
In short: as §1

purple nutsedge = test: Test B pre/postemergence purple nutsedge; assay type: in vivo, Cyperus rotundus
In short: as §1

[1] = Postemergence, Rate 62 g/ha, scale of 0 to 10, 0 is no effect, 10 is complete control
[2] = Postemergence, Rate 125 g/ha, scale of 0 to 10 where 0 is no effect and 10 is complete control
[3] = Postemergence, Rate 500 g/ha, scale of 0 to 10 where 0 is no effect and 10 is complete control
[4] = Preemergence, Rate 62 g/ha, scale 0 to 10 (0 no effect, 10 complete control)
[5] = Preemergence, Rate 125 g/ha, scale of 0 to 10 where 0 is no effect and 10 is complete control
[6] = Preemergence, Rate 500 g/ha, scale of 0 to 10 where 0 is no effect and 10 is complete control
[7] = Rate 250 g/ha, Postemergence, scale of 0 to 10 where 0 is no effect and 10 is complete control
[8] = Rate 125 g/ha, scale of 0 to 10 where 0 is no effect and 10 is complete control
[9] = Rate 500 g/ha, scale of 0 to 10 where 0 is no effect and 10 is complete control
[10] = Rate 250 g/ha, scale of 0 to 10 where 0 is no effect and 10 is complete control

For `CC(C)N(C(=O)n1oc(=O)n(CCCCF)c1=O)c1ccccc1` [Compound 581], the “Bedstraw plant response rating” value (bedstraw; [1]) was 0, the “Plant response rating, Bedstraw” value (bedstraw; [2]) was 8 and the “Plant response rating, Bedstraw” value (bedstraw; [3]) was 9. The “Bedstraw plant response rating” value (bedstraw; [4]) was 8, the “Bedstraw plant response rating” value (bedstraw; [5]) was 9 and the “Bedstraw plant response rating (0 to 10 scale)” value (bedstraw; Preemergence, Rate 250 g/ha) was 7. The “Bedstraw plant response rating” value (bedstraw; [6]) was 9, the “Blackgrass plant response rating” value (blackgrass; [1]) was 4 and the “Plant response rating, Blackgrass” value (blackgrass; [2]) was 4. For the same compound, the “Plant response rating, Blackgrass” value (blackgrass; [3]) was 4, the “Blackgrass plant response rating” value (blackgrass; [4]) was 0 and the “Blackgrass plant response rating” value (blackgrass; [5]) was 0. The “Blackgrass plant response rating (0 to 10 scale)” value (blackgrass; Preemergence, Rate 250 g/ha) was 0, the “Blackgrass plant response rating” value (blackgrass; [6]) was 7 and the “Plant response rating, Blackgrass” value (blackgrass; [7]) was 4. For the same compound, the “B. signalgrass plant response rating” value (surinam grass; [1]) was 5, the “Plant response rating, B. signalgrass” value (surinam grass; [2]) was 5 and the “Plant response rating, B. signalgrass” value (surinam grass; [3]) was 8. The “B. signalgrass plant response rating” value (surinam grass; [4]) was 0, the “B. signalgrass plant response rating” value (surinam grass; [5]) was 0 and the “B. signalgrass plant response rating (0 to 10 scale, 0 is no effect, 10 is complete control)” value (surinam grass; Preemergence, Rate 250 g/ha) was 2. The “B. signalgrass plant response rating” value (surinam grass; [6]) was 9, the “Plant response rating, B. signalgrass” value (surinam grass; [7]) was 7 and the “Cocklebur plant response rating” value (cocklebur; [1]) was 2. For the same compound, the “Plant response rating, Cocklebur” value (cocklebur; [3]) was 3, the “Cocklebur plant response rating” value (cocklebur; [4]) was 0 and the “Cocklebur plant response rating” value (cocklebur; [5]) was 0. The “Cocklebur plant response rating (0 to 10 scale)” value (cocklebur; Preemergence, Rate 250 g/ha) was 0, the “Cocklebur plant response rating” value (cocklebur; [6]) was 0 and the “Plant response rating, Cocklebur” value (cocklebur; [7]) was 3. The “Corn plant response rating” value (corn; [1]) was 2, the “Plant response rating, Corn” value (corn; [2]) was 4 and the “Plant response rating, Corn” value (corn; [3]) was 6. For the same compound, the “Corn plant response rating” value (corn; [4]) was 0, the “Corn plant response rating” value (corn; [5]) was 2 and the “Corn plant response rating (0 to 10 scale)” value (corn; Preemergence, Rate 250 g/ha) was 7. For the same compound, the “Corn plant response rating” value (corn; [6]) was 9, the “Plant response rating, Corn” value (corn; [7]) was 5 and the “Crabgrass plant response rating” value (crabgrass; [1]) was 3. The “Plant response rating, Crabgrass” value (crabgrass; [2]) was 7, the “Plant response rating, Crabgrass” value (crabgrass; [3]) was 9 and the “Crabgrass plant response rating” value (crabgrass; [4]) was 4. For the same compound, the “Crabgrass plant response rating” value (crabgrass; [5]) was 9, the “Crabgrass plant response rating (0 to 10 scale)” value (crabgrass; Preemergence, Rate 250 g/ha) was 8 and the “Crabgrass plant response rating” value (crabgrass; [6]) was 9. The “Plant response rating, Crabgrass” value (crabgrass; [7]) was 7, the “Giant foxtail plant response rating” value (giant foxtail; [1]) was 7 and the “Plant response rating, Giant foxtail” value (giant foxtail; [2]) was 8. For the same compound, the “Plant response rating, Giant foxtail” value (giant foxtail; [3]) was 9, the “Giant foxtail plant response rating” value (giant foxtail; [4]) was 4 and the “Giant foxtail plant response rating” value (giant foxtail; [5]) was 10. The “Giant foxtail plant response rating (0 to 10 scale)” value (giant foxtail; Preemergence, Rate 250 g/ha) was 9, the “Giant foxtail plant response rating” value (giant foxtail; [6]) was 10 and the “Plant response rating, Giant foxtail” value (giant foxtail; [7]) was 8. For the same compound, the “Morningglory plant response rating” value (morningglory; [1]) was 4, the “Plant response rating, Morningglory” value (morningglory; [2]) was 8 and the “Plant response rating, Morningglory” value (morningglory; [3]) was 10. For the same compound, the “Morningglory plant response rating” value (morningglory; [4]) was 0, the “Morningglory plant response rating” value (morningglory; [5]) was 2 and the “Morningglory plant response rating (0 to 10 scale)” value (morningglory; Preemergence, Rate 250 g/ha) was 4. The “Morningglory plant response rating” value (morningglory; [6]) was 6, the “Plant response rating, Morningglory” value (morningglory; [7]) was 7 and the “Plant response rating, Redroot pigweed” value (pigweed; Rate 125 g/ha) was 8. The “Plant response rating, Redroot pigweed” value (pigweed; Rate 500 g/ha) was 9, the “Redroot pigweed plant response rating” value (pigweed; Preemergence, Rate 125 g/ha) was 5 and the “Redroot pigweed plant response rating (0 to 10 scale)” value (pigweed; Preemergence, Rate 250 g/ha) was 9. For the same compound, the “Redroot pigweed plant response rating” value (pigweed; Preemergence, Rate 500 g/ha) was 10, the “Plant response rating, Redroot pigweed” value (pigweed; Rate 250 g/ha) was 8 and the “Rape plant response rating” value (rape; [1]) was 0. The “Plant response rating, Rape” value (rape; [2]) was 7, the “Plant response rating, Rape” value (rape; [3]) was 7 and the “Rape plant response rating” value (rape; [4]) was 0. For the same compound, the “Rape plant response rating” value (rape; [5]) was 0, the “Rape plant response rating (0 to 10 scale)” value (rape; Preemergence, Rate 250 g/ha) was 2 and the “Rape plant response rating” value (rape; [6]) was 7. The “Plant response rating, Rape” value (rape; [7]) was 7, the “Plant response rating, Soybean” value (soybean; [8]) was 4 and the “Plant response rating, Soybean” value (soybean; [9]) was 5. The “Soybean plant response rating” value (soybean; [4]) was 0, the “Soybean plant response rating” value (soybean; [5]) was 0 and the “Soybean plant response rating (0 to 10 scale)” value (soybean; Preemergence, Rate 250 g/ha) was 5. For the same compound, the “Soybean plant response rating” value (soybean; [6]) was 7, the “Plant response rating, Soybean” value (soybean; [10]) was 4 and the “Plant response rating, Sugarbeets” value (sugar beet; [8]) was 5. For the same compound, the “Plant response rating, Sugarbeets” value (sugar beet; [9]) was 8, the “Sugarbeets plant response rating” value (sugar beet; [4]) was 0 and the “Sugarbeets plant response rating” value (sugar beet; [5]) was 0. For the same compound, the “Sugarbeets plant response rating (0 to 10 scale)” value (sugar beet; Preemergence, Rate 250 g/ha) was 0, the “Sugarbeets plant response rating” value (sugar beet; [6]) was 9 and the “Plant response rating, Sugarbeets” value (sugar beet; [10]) was 7. For the same compound, the “Plant response rating, Velvetleaf” value (velvetleaf; [8]) was 4, the “Plant response rating, Velvetleaf” value (velvetleaf; [9]) was 6 and the “Velvetleaf plant response rating” value (velvetleaf; [4]) was 5. For the same compound, the “Velvetleaf plant response rating” value (velvetleaf; [5]) was 5, the “Velvetleaf plant response rating (0 to 10 scale)” value (velvetleaf; Preemergence, Rate 250 g/ha) was 5 and the “Velvetleaf plant response rating” value (velvetleaf; [6]) was 10. The “Plant response rating, Velvetleaf” value (velvetleaf; [10]) was 6, the “Plant response rating, Wheat” value (wheat; [8]) was 4 and the “Plant response rating, Wheat” value (wheat; [9]) was 4. The “Wheat plant response rating” value (wheat; [4]) was 0, the “Wheat plant response rating” value (wheat; [5]) was 0 and the “Wheat plant response rating (0 to 10 scale)” value (wheat; Preemergence, Rate 250 g/ha) was 2. The “Wheat plant response rating” value (wheat; [6]) was 5, the “Plant response rating, Wheat” value (wheat; [10]) was 4 and the “Plant response rating, Wild oats” value (wild oat; [8]) was 5. The “Plant response rating, Wild oats” value (wild oat; [9]) was 5, the “Wild oats plant response rating” value (wild oat; [4]) was 0 and the “Wild oats plant response rating” value (wild oat; [5]) was 0. For the same compound, the “Wild oats plant response rating (0 to 10 scale)” value (wild oat; Preemergence, Rate 250 g/ha) was 0, the “Wild oats plant response rating” value (wild oat; [6]) was 8 and the “Plant response rating, Wild oats” value (wild oat; [10]) was 5. For the same compound, the “Nutsedge plant response rating” value (purple nutsedge; [1]) was 0, the “Nutsedge plant response rating” value (purple nutsedge; [4]) was 0 and the “Nutsedge plant response rating” value (purple nutsedge; [5]) was 0. For the same compound, the “Nutsedge plant response rating (0 to 10 scale)” value (purple nutsedge; Preemergence, Rate 250 g/ha) was 4 and the “Nutsedge plant response rating” value (purple nutsedge; [6]) was 8.
